Laboratory results: ChEMBL document CHEMBL1201862, “PubChem BioAssay data set” (2004)
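48-hour exposure; five concentrations; linearly interpolated endpoints. GI50 marks 50% less growth.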 Activity calls are given as the source filed them. No stated cut-off is given here; in the data, active = GI50 up to about 1.1 µM and inactive = higher.

Assays:
Test in all cases: NCI anticancer screen, dose series, 48 h
ACHN = system: ACHN
HCT-15 = system: HCT-15
HOP-62 = system: HOP-62
HT-29 = system: HT-29
KM-20L2 = system: KM-20L2
M14 = system: M14
MCF7 = system: MCF7
MOLT-4 = system: MOLT-4
NCI-H226 = system: NCI-H226
NCI-H460 = system: NCI-H460
SF-539 = system: SF-539
SK-MEL-2 = system: SK-MEL-2
SNB-75 = system: SNB-75
SW-620 = system: SW-620
TK-10 = system: TK-10
UO-31 = system: UO-31
DU-145 = system: DU-145
Hs-578T = system: Hs-578T
MDA-MB-435 = system: MDA-MB-435
MDA-N = system: MDA-N

Compound | GI50 (ACHN) | GI50 (HCT-15) [µM] | GI50 (HOP-62) | GI50 (HT-29) | GI50 (KM-20L2) | GI50 (M14) | GI50 (MCF7) | GI50 (MOLT-4) | GI50 (NCI-H226) | GI50 (NCI-H460) | GI50 (SF-539) | GI50 (SK-MEL-2) | GI50 (SNB-75) | GI50 (SW-620) | GI50 (TK-10) | GI50 (UO-31) | GI50 (DU-145) | GI50 (Hs-578T) | GI50 (MDA-MB-435) | GI50 (MDA-N)
Cn1sc2ccccc2c1=S | 13.8 µM (inactive) | 5.5 | 16.5 µM (inactive) | 10.7 µM (inactive) | 13.7 µM (inactive) | 10.4 µM (inactive) | 2.64 µM (inactive) | 4.04 µM (inactive) | 23.2 µM (inactive) | 13.8 µM (inactive) | 5.83 µM (inactive) | 20 µM (inactive) | 6.82 µM (inactive) | 2.28 µM (inactive) | 24.1 µM (inactive) | 15.3 µM (inactive) |  |  |  | 
COc1ccc(C(=O)c2c(C(C(=O)c3ccc(OC)cc3)C(=O)c3ccc(OC)cc3)n(C(=O)c3ccc(OC)cc3)c3ccccc23)cc1 | > 100 µM (inactive) | > 100 | > 100 µM (inactive) | > 100 µM (inactive) | > 100 µM (inactive) | > 100 µM (inactive) |  | > 100 µM (inactive) | > 100 µM (inactive) | > 100 µM (inactive) | > 100 µM (inactive) | > 100 µM (inactive) | > 100 µM (inactive) | > 100 µM (inactive) | > 100 µM (inactive) | > 100 µM (inactive) |  |  |  | 
Cc1nc(Nc2ccc(Cl)cc2)sc1C(=O)NNc1ccc([N+](=O)[O-])cc1[N+](=O)[O-] | 17.3 µM (inactive) |  | 12.2 µM (inactive) |  | 16.2 µM (inactive) | 24.7 µM (inactive) |  | 15 µM (inactive) | 15.7 µM (inactive) | 18 µM (inactive) | 17.3 µM (inactive) | 17.9 µM (inactive) | 16.7 µM (inactive) | 22 µM (inactive) | 19.8 µM (inactive) | 14.2 µM (inactive) |  |  |  | 
COc1cc(O)c(C(=O)C2Cc3ccccc32)c(OC)c1 (centres undefined) | 50.7 µM (inactive) | 32.9 | > 100 µM (inactive) | 35.3 µM (inactive) | 65.3 µM (inactive) | 33.9 µM (inactive) |  | 16.9 µM (inactive) | 22.6 µM (inactive) | 61.8 µM (inactive) | > 100 µM (inactive) | 34.3 µM (inactive) | 37.7 µM (inactive) | 59.7 µM (inactive) | > 100 µM (inactive) | 33.5 µM (inactive) |  |  |  | 
Cc1cc(=O)oc2c(C3=NN(C=O)C(c4ccccc4)C3)c(O)ccc12 (centres undefined) | 14.8 µM (inactive) | > 78.5 | 37.1 µM (inactive) | > 80.7 µM (inactive) | > 100 µM (inactive) | 51.9 µM (inactive) | > 50.5 µM (inactive) | > 73.6 µM (inactive) | > 76 µM (inactive) | 73.3 µM (inactive) | 52.4 µM (inactive) | 52.5 µM (inactive) | 3.22 µM (inactive) | > 100 µM (inactive) | 57.4 µM (inactive) | 64.3 µM (inactive) | > 100 µM (inactive) | 31.2 µM (inactive) | > 65.9 µM (inactive) | > 54.8 µM (inactive)
CC/C=C/c1cc2c(c3[nH]ccc13)[C@@H](C)CC2C.CC/C=C/c1cc2cc[nH]c2c2c1C(C)C[C@@H]2C.CCc1cc2c(c3[nH]ccc13)[C@@H](C)CC2C (some centres undefined) | 16.2 µM (inactive) |  | 16.3 µM (inactive) | 14.4 µM (inactive) | 14.8 µM (inactive) | 13.5 µM (inactive) |  |  | 15.2 µM (inactive) | 15.2 µM (inactive) | 16.1 µM (inactive) | 15.4 µM (inactive) | 10 µM (inactive) | 16.9 µM (inactive) | 22.1 µM (inactive) | 16.6 µM (inactive) |  |  |  | 
CCN(CCO)CCNc1ccc(C)c2sc3ccccc3c(=O)c12 | 4.26 µM (inactive) | 4.15 | 3.97 µM (inactive) | 2.52 µM (inactive) | 2.59 µM (inactive) | 1.78 µM (inactive) | 1.8 µM (inactive) | 4.43 µM (inactive) | 4 µM (inactive) | 1.73 µM (inactive) | 3.75 µM (inactive) | 3.59 µM (inactive) | 3.01 µM (inactive) | 2.28 µM (inactive) | 8.81 µM (inactive) | 5.41 µM (inactive) | 10.2 µM (inactive) | 2.25 µM (inactive) | 1.96 µM (inactive) | 1.74 µM (inactive)
CCOC(=O)C(C)Sc1nnc(COc2ccccc2OC)n1-c1ccccc1 (centres undefined) | > 100 µM (inactive) | 16.9 | > 100 µM (inactive) | 75.5 µM (inactive) | > 100 µM (inactive) | > 100 µM (inactive) |  |  | > 100 µM (inactive) | 18.3 µM (inactive) | > 100 µM (inactive) | > 100 µM (inactive) | > 100 µM (inactive) | 19.2 µM (inactive) | > 100 µM (inactive) | > 100 µM (inactive) |  |  |  | 
Nn1c(-c2ccccc2Cl)nc2ccccc2c1=O | > 100 µM (inactive) | > 100 | > 100 µM (inactive) | > 100 µM (inactive) | > 100 µM (inactive) | > 100 µM (inactive) |  | > 100 µM (inactive) | 57 µM (inactive) | > 100 µM (inactive) | > 100 µM (inactive) | > 100 µM (inactive) | > 100 µM (inactive) | > 100 µM (inactive) | > 100 µM (inactive) | > 100 µM (inactive) |  |  |  | 
O=c1[nH]c(=O)n(C2OC(CO)C(O)C2O)cc1/N=N/NCc1ccccc1 (centres undefined) | > 100 µM (inactive) | > 65 | > 100 µM (inactive) | > 100 µM (inactive) | > 100 µM (inactive) | > 100 µM (inactive) |  | > 100 µM (inactive) | > 100 µM (inactive) | > 69.2 µM (inactive) | > 100 µM (inactive) | > 100 µM (inactive) | > 100 µM (inactive) | > 53.5 µM (inactive) | > 100 µM (inactive) | > 100 µM (inactive) |  |  |  | 
CCCNC(=O)c1cc2ccccc2cc1C(=O)OC | 78.2 µM (inactive) | > 100 | > 100 µM (inactive) | > 100 µM (inactive) | > 100 µM (inactive) | > 100 µM (inactive) |  | > 100 µM (inactive) | 83.4 µM (inactive) | > 100 µM (inactive) | > 100 µM (inactive) | > 100 µM (inactive) | 19.3 µM (inactive) | > 100 µM (inactive) | > 100 µM (inactive) | 58.5 µM (inactive) |  |  |  | 
[O-][S+](Cc1cc2c(cc1Br)OCO2)c1ccccc1 (centres undefined) | 64.6 µM (inactive) | 34.4 | > 100 µM (inactive) | 34 µM (inactive) | 71.4 µM (inactive) | 48.2 µM (inactive) |  | 26.5 µM (inactive) | > 100 µM (inactive) | 41.4 µM (inactive) | 32.7 µM (inactive) | > 100 µM (inactive) | > 100 µM (inactive) | 15.4 µM (inactive) | > 100 µM (inactive) | 47.5 µM (inactive) |  |  |  | 
CCN(CC)C1CC(O[C@H]2C[C@](O)(C(=O)CO)Cc3c(O)c4c(c(O)c32)C(=O)c2c(OC)cccc2C4=O)OC(C)C1O (some centres undefined) | 0.0316 µM (active) | 0.245 | 0.0887 µM (active) | < 0.0252 µM (active) | 0.0733 µM (active) | 0.0982 µM (active) |  | 0.0225 µM (active) | 0.019 µM (active) | < 0.019 µM (active) | 0.0461 µM (active) | 0.067 µM (active) | 0.028 µM (active) | < 0.0219 µM (active) | 0.0881 µM (active) | 0.0604 µM (active) |  |  |  | 
COC(=O)C1=C(C)N(NC(=O)OC(C)(C)C)C(=O)C1=P(c1ccccc1)(c1ccccc1)c1ccccc1 | > 100 µM (inactive) | > 100 | > 100 µM (inactive) | > 100 µM (inactive) | > 100 µM (inactive) | > 100 µM (inactive) |  | 41.4 µM (inactive) | > 100 µM (inactive) | > 100 µM (inactive) | > 100 µM (inactive) | 17.2 µM (inactive) | > 100 µM (inactive) | > 100 µM (inactive) | > 100 µM (inactive) | > 100 µM (inactive) |  |  |  | 
CCN(CC)CCOC(c1ccccc1)c1ccccc1.CCOC(=O)Nc1ccc(S(=O)(=O)OC)cc1.CCOC(=O)Nc1ccc(S(=O)(=O)OC)cc1.Nc1ccc(C(=O)O)c(O)c1 | > 100 µM (inactive) | > 100 | > 100 µM (inactive) | > 100 µM (inactive) | > 100 µM (inactive) | > 100 µM (inactive) |  | > 100 µM (inactive) | > 100 µM (inactive) | > 100 µM (inactive) | > 100 µM (inactive) | > 100 µM (inactive) | > 100 µM (inactive) | > 100 µM (inactive) | > 100 µM (inactive) | > 100 µM (inactive) |  |  |  | 
CC1CCC2[C@@H](C)COC3O[C@]4(C)CCC1C32OO4 (some centres undefined) | > 100 µM (inactive) | > 100 | > 100 µM (inactive) | > 100 µM (inactive) | > 100 µM (inactive) | > 100 µM (inactive) |  |  | > 100 µM (inactive) | > 100 µM (inactive) | > 100 µM (inactive) | > 100 µM (inactive) | 91.6 µM (inactive) | > 100 µM (inactive) | > 100 µM (inactive) | 54.1 µM (inactive) |  |  |  | 
COc1ccc2cc3n(c(=O)c2c1)CCc1c-3cc(OC)c(OC)c1OC | > 100 µM (inactive) | > 100 | 68.1 µM (inactive) | > 100 µM (inactive) | > 100 µM (inactive) | > 100 µM (inactive) |  | > 100 µM (inactive) | > 100 µM (inactive) |  | 60 µM (inactive) | 56 µM (inactive) | 34.7 µM (inactive) | > 100 µM (inactive) | > 100 µM (inactive) | > 100 µM (inactive) |  |  |  | 
